Source: ChEMBL document CHEMBL3885881, “DrugMatrix”

Species on record: Rattus norvegicus
Assay: DrugMatrix - Regimen: Daily Repeat
Format: toxicity, organism-based, Sprague-Dawley
Parameters: regimen Daily Repeat, gender Male, age 6-8 weeks
Conditions: in vivo, po, 75 mg/kg, route oral GAVAGE, dose level High, vehicle .5 % CMC; for ABSOLUTE BASOPHIL / ABSOLUTE EOSINOPHIL / ABSOLUTE LYMPHOCYTE / ABSOLUTE MONOCYTE / ABSOLUTE SEGMENTED NEUTROPHIL / BASOPHIL / EOSINOPHIL / ERYTHROCYTE COUNT / HEMATOCRIT / HEMOGLOBIN / LEUKOCYTE COUNT / LYMPHOCYTE / MEAN CORPUSCULAR HEMOGLOBIN / MEAN CORPUSCULAR HEMOGLOBIN CONCENTRATION / MEAN CORPUSCULAR VOLUME / MONOCYTE / NEUTROPHIL / NUCLEATED RED BLOOD CELLS / PLATELET COUNT: tissue Blood
[1] = 72 h, tissue Plasma, time 3 day
[2] = 120 h, tissue Plasma, time 5 day

With `COc1ccc(C2CNC(=O)C2)cc1OC1CCCC1` (stereo not drawn) [ROLIPRAM] the “ABSOLUTE BASOPHIL” value (72 h, time 3 day) was 0 CELLS/uL, the “ABSOLUTE EOSINOPHIL” value (72 h, time 3 day) was 174 CELLS/uL and the “ABSOLUTE LYMPHOCYTE” value (72 h, time 3 day) was 10500 CELLS/uL. For the same compound, the “ABSOLUTE MONOCYTE” value (72 h, time 3 day) was 432 CELLS/uL, the “ABSOLUTE SEGMENTED NEUTROPHIL” value (72 h, time 3 day) was 3427.33 CELLS/uL and the BASOPHIL (72 h, time 3 day) was 0%. For the same compound, the EOSINOPHIL (72 h, time 3 day) was 1%, the “ERYTHROCYTE COUNT” value (72 h, time 3 day) was 6.02 x10E6/uL and the HEMATOCRIT (72 h, time 3 day) was 37.7%. The HEMOGLOBIN (72 h, time 3 day) was 13.93 G/DL, the “LEUKOCYTE COUNT” value (72 h, time 3 day) was 14.53 x10E3/uL and the LYMPHOCYTE (72 h, time 3 day) was 73.33%. The “MEAN CORPUSCULAR HEMOGLOBIN” value (72 h, time 3 day) was 23.2 pg, the “MEAN CORPUSCULAR HEMOGLOBIN CONCENTRATION” value (72 h, time 3 day) was 36.97 G/DL and the “MEAN CORPUSCULAR VOLUME” value (72 h, time 3 day) was 62.73 fL. For the same compound, the MONOCYTE (72 h, time 3 day) was 2.67%, the NEUTROPHIL (72 h, time 3 day) was 23% and the “NUCLEATED RED BLOOD CELLS” value (72 h, time 3 day) was 0 /100WBC. For the same compound, the “PLATELET COUNT” value (72 h, time 3 day) was 1088.33 x10E3/uL, the “ALANINE AMINOTRANSFERASE” value [1] was 60.33 u/L and the ALBUMIN [1] was 4.3 G/DL. For the same compound, the “ALKALINE PHOSPHATASE” value [1] was 331.67 u/L, the “ASPARTATE AMINOTRANSFERASE” value [1] was 73.33 u/L and the “BLOOD UREA NITROGEN” value [1] was 14.67 mg/dL. The “CARBON DIOXIDE” value [1] was 28 mmol/L, the CHLORIDE [1] was 104 MEQ/L and the CHOLESTEROL [1] was 63.33 mg/dL. The CREATININE [1] was 0.17 mg/dL, the GLUCOSE [1] was 170.67 mg/dL and the “LACTATE DEHYDROGENASE” value [1] was 116 u/L. It also gave an LIPASE [1] of 10 u/L, a PHOSPHORUS [1] of 11 mg/dL and a POTASSIUM [1] of 6.1 MEQ/L. For the same compound, the SODIUM [1] was 147.83 MEQ/L, the “TOTAL BILIRUBIN” value [1] was 0.1 mg/dL and the “TOTAL PROTEIN” value [1] was 6.23 G/DL. For the same compound, the “URIC ACID” value [1] was 1.73 mg/dL, the “ABSOLUTE BASOPHIL” value (120 h, time 5 day) was 0 CELLS/uL and the “ABSOLUTE EOSINOPHIL” value (120 h, time 5 day) was 142.67 CELLS/uL. For the same compound, the “ABSOLUTE LYMPHOCYTE” value (120 h, time 5 day) was 8076.67 CELLS/uL, the “ABSOLUTE MONOCYTE” value (120 h, time 5 day) was 387 CELLS/uL and the “ABSOLUTE SEGMENTED NEUTROPHIL” value (120 h, time 5 day) was 1493.67 CELLS/uL. The BASOPHIL (120 h, time 5 day) was 0%, the EOSINOPHIL (120 h, time 5 day) was 1.33% and the “ERYTHROCYTE COUNT” value (120 h, time 5 day) was 6.66 x10E6/uL. For the same compound, the HEMATOCRIT (120 h, time 5 day) was 40%, the HEMOGLOBIN (120 h, time 5 day) was 14.37 G/DL and the “LEUKOCYTE COUNT” value (120 h, time 5 day) was 10.1 x10E3/uL. For the same compound, the LYMPHOCYTE (120 h, time 5 day) was 81.33%, the “MEAN CORPUSCULAR HEMOGLOBIN” value (120 h, time 5 day) was 21.6 pg and the “MEAN CORPUSCULAR HEMOGLOBIN CONCENTRATION” value (120 h, time 5 day) was 35.93 G/DL. The “MEAN CORPUSCULAR VOLUME” value (120 h, time 5 day) was 60.07 fL, the MONOCYTE (120 h, time 5 day) was 3.67% and the NEUTROPHIL (120 h, time 5 day) was 13.67%. The “NUCLEATED RED BLOOD CELLS” value (120 h, time 5 day) was 0 /100WBC, the “PLATELET COUNT” value (120 h, time 5 day) was 1039 x10E3/uL and the “ALANINE AMINOTRANSFERASE” value [2] was 69.67 u/L. The ALBUMIN [2] was 4.5 G/DL, the “ALKALINE PHOSPHATASE” value [2] was 284.67 u/L and the “ASPARTATE AMINOTRANSFERASE” value [2] was 99.67 u/L. The “BLOOD UREA NITROGEN” value [2] was 15.33 mg/dL, the “CARBON DIOXIDE” value [2] was 34.33 mmol/L and the CHLORIDE [2] was 101.67 MEQ/L. The CHOLESTEROL [2] was 82.67 mg/dL, the CREATININE [2] was 0.18 mg/dL and the GLUCOSE [2] was 127 mg/dL. The “LACTATE DEHYDROGENASE” value [2] was 138.67 u/L, the LIPASE [2] was 8.67 u/L and the PHOSPHORUS [2] was 9.93 mg/dL. The POTASSIUM [2] was 6.21 MEQ/L, the SODIUM [2] was 149.7 MEQ/L and the “TOTAL BILIRUBIN” value [2] was 0.13 mg/dL. The “TOTAL PROTEIN” value [2] was 6.8 G/DL.
